From article PMC11995724, “Antibiotic target discovery by integrated phenotypic and activity-based profiling of electrophilic fragments” (Cell chemical biology, 2025)

test: in vitro; conditions: human, hek293t cells

In order of rising viability at 48 h, 25 µM:
1. C=CC(=O)N(C)c1ccc(C#N)c(Cl)c1 [3-G05, N-(3-chloro-4-cyanophenyl)-N-methylprop-2-enamide]  0.69%
2. C=CC(=O)NCc1ccc(C(=O)N2CCN(C(C)=O)CC2)cc1 [3-G17, N-{[4-(4-acetylpiperazine-1-carbonyl)phenyl]methyl}prop-2-enamide]  32.9%
3. C=CC(=O)N(CC)CC(=O)N1CCNC(=O)C1c1cccs1 (stereo not shown) [3-G07, N-ethyl-N-{2-oxo-2-[3-oxo-2-(thiophen-2-yl)piperazin-1-yl]ethyl}prop-2-enamide]  40%
4. C=CC(=O)N1CCC(C(=O)NC(C)c2cccc(C(F)(F)F)c2)CC1 (stereo not shown) [3-G13, 1-(prop-2-enoyl)-N-{1-[3-(trifluoromethyl)phenyl]ethyl}piperidine-4-carboxamide]  40.6%
5. C=CC(=O)NCCC(=O)N1CCC(C)(C)S(=O)(=O)CC1 [3-G19, N-[3-(7,7-dimethyl-1,1-dioxo-1lambda6,4-thiazepan-4-yl)-3-oxopropyl]prop-2-enamide]  41.2%
6. C=CC(=O)Nc1ccnn1CC1CC1 [3-G09, N-[1-(cyclopropylmethyl)-1H-pyrazol-5-yl]prop-2-enamide]  41.5%
7. C=CC(=O)N1CCCC(CNS(=O)(=O)C2CC2)C1 (stereo not shown) [3-G21, N-{[1-(prop-2-enoyl)piperidin-3-yl]methyl}cyclopropanesulfonamide]  50.6%
8. C=CC(=O)N1C2C=C(c3nccn3C)CC1CC2 (stereo not shown) [3-G03, 1-[3-(1-methyl-1H-imidazol-2-yl)-8-azabicyclo[3.2.1]oct-2-en-8-yl]prop-2-en-1-one]  52.5%
9. C=CC(=O)N1CCN(Cc2nc(C(C)C)no2)CC1 [3-G11, 1-(4-{[3-(propan-2-yl)-1,2,4-oxadiazol-5-yl]methyl}piperazin-1-yl)prop-2-en-1-one]  55.2%
10. C=CC(=O)N1CCCC(NS(=O)(=O)c2cccc(F)c2)C1 (stereo not shown) [3-G15, 3-fluoro-N-[1-(prop-2-enoyl)piperidin-3-yl]benzene-1-sulfonamide]  58%
11. C=CC(=O)N1CCC(C(=O)N[C@H]2CCOc3c(F)cccc32)CC1 [3-F12, N-[(4S)-8-fluoro-3,4-dihydro-2H-1-benzopyran-4-yl]-1-(prop-2-enoyl)piperidine-4-carboxamide]  64.9%
12. C=CC(=O)N1CCC(C(=O)NC2(CO)CCSCC2)CC1 [3-H07, N-[4-(hydroxymethyl)thian-4-yl]-1-(prop-2-enoyl)piperidine-4-carboxamide]  67.5%
13. C=CC(=O)NCC1CCCN1S(=O)(=O)CC (stereo not shown) [3-F19, N-{[1-(ethanesulfonyl)pyrrolidin-2-yl]methyl}prop-2-enamide]  68.6%
14. C=CC(=O)N(CCC(N)=O)C1CCOc2ccccc21 (stereo not shown) [3-F13, N-(2-carbamoylethyl)-N-(3,4-dihydro-2H-1-benzopyran-4-yl)prop-2-enamide]  69.2%
15. C=CC(=O)N1CCOC(c2nccs2)C1 (stereo not shown) [3-H09, 1-[2-(1,3-thiazol-2-yl)morpholin-4-yl]prop-2-en-1-one]  69.4%
16. C=CC(=O)NC(Cn1cncn1)c1ccccc1 (stereo not shown) [3-F17, N-[1-phenyl-2-(1H-1,2,4-triazol-1-yl)ethyl]prop-2-enamide]  71.9%
17. C=CC(=O)NCCN1CCn2nccc2C1 [3-F21, N-(2-{4H,5H,6H,7H-pyrazolo[1,5-a]pyrazin-5-yl}ethyl)prop-2-enamide]  72.8%
18. C=CC(=O)N1CCC(C(=O)NCc2ncccc2OC)CC1 [3-H05, N-[(3-methoxypyridin-2-yl)methyl]-1-(prop-2-enoyl)piperidine-4-carboxamide]  73.5%
19. C=CC(=O)N(C)CC(=O)Nc1ccc(C)c(S(=O)(=O)N(C)C)c1 [3-G04, N-({[3-(dimethylsulfamoyl)-4-methylphenyl]carbamoyl}methyl)-N-methylprop-2-enamide]  78.3%
20. C=CC(=O)NCCc1nnc(C)s1 [3-G22, N-[2-(5-methyl-1,3,4-thiadiazol-2-yl)ethyl]prop-2-enamide]  78.3%
21. C=CC(=O)NC1CCN(c2nnnn2C)CC1 [3-G06, N-[1-(1-methyl-1H-1,2,3,4-tetrazol-5-yl)piperidin-4-yl]prop-2-enamide]  79.8%
22. C=CC(=O)N(C)Cc1cn(C)nc1C(C)C [3-F15, N-methyl-N-{[1-methyl-3-(propan-2-yl)-1H-pyrazol-4-yl]methyl}prop-2-enamide]  80.7%
23. C=CC(=O)N1CCC(C(=O)NCc2cc(C)c[nH]c2=O)CC1 [3-H03, N-[(5-methyl-2-oxo-1,2-dihydropyridin-3-yl)methyl]-1-(prop-2-enoyl)piperidine-4-carboxamide]  81.3%
24. C=CC(=O)NCc1cc(C(F)(F)F)on1 [3-F20, N-{[5-(trifluoromethyl)-1,2-oxazol-3-yl]methyl}prop-2-enamide]  84.8%
25. C=CC(=O)Nc1cccc(OC(C)(C)C)c1 [3-G14, N-[3-(tert-butoxy)phenyl]prop-2-enamide]  85.8%
26. C=CC(=O)Nc1ccc(N(C)S(=O)(=O)CC)cc1 [3-H06, N-[4-(N-methylethanesulfonamido)phenyl]prop-2-enamide]  87.8%
27. C=CC(=O)N1CCN(Cc2cc(=O)n3ccsc3n2)CC1 [3-F22, 7-{[4-(prop-2-enoyl)piperazin-1-yl]methyl}-5H-[1,3]thiazolo[3,2-a]pyrimidin-5-one]  90.5%
28. C=CC(=O)N1CCCC1c1cc(C)no1 (stereo not shown) [3-G12, 1-[2-(3-methyl-1,2-oxazol-5-yl)pyrrolidin-1-yl]prop-2-en-1-one]  91.7%
29. C=CC(=O)N1CCC(C(=O)OCC)(S(C)(=O)=O)CC1 [3-H04, ethyl 4-methanesulfonyl-1-(prop-2-enoyl)piperidine-4-carboxylate]  93.3%
30. C=CC(=O)Nc1cc(C)cc(S(C)(=O)=O)c1 [3-F14, N-(3-methanesulfonyl-5-methylphenyl)prop-2-enamide]  94.1%
31. C=CC(=O)NCC1CCN(Cc2ccccc2)CC1C (stereo not shown) [3-G20, N-[(1-benzyl-3-methylpiperidin-4-yl)methyl]prop-2-enamide]  94.1%
32. C=CC(=O)NC1CCC(S(C)(=O)=O)C1 (stereo not shown) [3-F18, N-(3-methanesulfonylcyclopentyl)prop-2-enamide]  94.3%
33. C=CC(=O)N(C)CC(=O)Nc1ccc(N2C[C@@H](C)O[C@@H](C)C2)cc1 [3-H08, N-[({4-[(2R,6S)-2,6-dimethylmorpholin-4-yl]phenyl}carbamoyl)methyl]-N-methylprop-2-enamide]  94.9%
34. C=CC(=O)N1CCCN(S(=O)(=O)c2ccc(OC)cc2)CC1 [3-G10, 1-[4-(4-methoxybenzenesulfonyl)-1,4-diazepan-1-yl]prop-2-en-1-one]  96.8%
35. C=CC(=O)NCCC(=O)N1CCSC(C)(C)C1 [3-G18, N-[3-(2,2-dimethylthiomorpholin-4-yl)-3-oxopropyl]prop-2-enamide]  101%
36. C=CC(=O)Nc1ccccc1CNS(C)(=O)=O [3-F16, N-[2-(methanesulfonamidomethyl)phenyl]prop-2-enamide]  104%
37. C=CC(=O)NCC1=NOCC1 [3-G16, N-[(4,5-dihydro-1,2-oxazol-3-yl)methyl]prop-2-enamide]  104%
